According to publication PMC4125495 (DNA repair, 2014):
Where two headings read alike, the source gives them in different places.

Key:
BRCA2tr/- cells [1] = assay: Cell viability assay; format: cell-based, chicken; settings: single agent, compared with PARP1-/- and hTDP1 cells
hTDP1 cells = assay: Secondary screening cell viability assay; settings: 15 and 20 nM CPT
DT40 hTDP1 cells = settings: no CPT vs CPT (Table 1)
PARP1 = PARP1 (Gallus gallus, UniProt P26446); assay: PAR ELISA assay; format: cell-based
Chain of PARP1 (P26446 whole entry): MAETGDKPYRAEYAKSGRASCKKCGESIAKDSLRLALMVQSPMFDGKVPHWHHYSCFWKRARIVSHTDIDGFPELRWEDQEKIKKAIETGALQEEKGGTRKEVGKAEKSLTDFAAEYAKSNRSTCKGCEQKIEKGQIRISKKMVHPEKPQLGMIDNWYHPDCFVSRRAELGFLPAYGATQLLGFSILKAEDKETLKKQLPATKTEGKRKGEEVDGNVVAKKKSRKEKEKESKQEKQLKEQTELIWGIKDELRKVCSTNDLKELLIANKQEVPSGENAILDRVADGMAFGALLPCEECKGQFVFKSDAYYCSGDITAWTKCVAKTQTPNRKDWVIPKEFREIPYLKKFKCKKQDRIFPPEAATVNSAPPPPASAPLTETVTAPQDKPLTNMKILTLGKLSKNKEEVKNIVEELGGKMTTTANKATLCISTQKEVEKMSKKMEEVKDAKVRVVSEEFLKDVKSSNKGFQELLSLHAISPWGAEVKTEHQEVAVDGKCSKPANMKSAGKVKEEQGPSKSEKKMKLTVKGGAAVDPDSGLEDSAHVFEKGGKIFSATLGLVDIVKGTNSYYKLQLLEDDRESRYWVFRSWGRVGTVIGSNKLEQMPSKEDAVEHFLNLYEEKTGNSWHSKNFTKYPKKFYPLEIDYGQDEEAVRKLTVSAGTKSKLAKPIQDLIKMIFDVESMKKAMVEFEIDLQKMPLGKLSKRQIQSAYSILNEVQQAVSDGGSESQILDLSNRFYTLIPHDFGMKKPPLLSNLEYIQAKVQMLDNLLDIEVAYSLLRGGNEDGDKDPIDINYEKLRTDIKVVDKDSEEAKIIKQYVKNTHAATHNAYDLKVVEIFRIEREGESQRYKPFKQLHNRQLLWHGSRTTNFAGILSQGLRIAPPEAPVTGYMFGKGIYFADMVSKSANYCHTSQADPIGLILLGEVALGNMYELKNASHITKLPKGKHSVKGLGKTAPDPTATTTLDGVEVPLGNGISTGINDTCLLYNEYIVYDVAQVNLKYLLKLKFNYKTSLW

TDP1-/- cells = assay: Secondary screening cell viability assay; settings: 5 and 10 nM CPT
BRCA2tr/- cells [2] = settings: cited from earlier work
[3] = read-out: IC50 Poly (ADP-ribose) lation, PAR ELISA

Row | IC50 (PARP1; [3]) | SMILES | cytotoxic effect in BRCA2tr/- cells (BRCA2tr/- cells [1]) | potentiating (synergistic) effect with CPT in hTDP1 cells (hTDP1 cells) | fold potentiation of cytotoxicity in the presence of CPT (DT40 hTDP1 cells) | potentiating (synergistic) effect with CPT in TDP1-/- cells (TDP1-/- cells) | IC50 (PARP1) | cytotoxic effect in BRCA2tr/- cells (BRCA2tr/- cells [2])
1 | < 0.02 µM | CC(=O)Nc1ccc2c(c1)[nH]c(=O)c1ccccc12 [Cpd1] | selectively cytotoxic | greatest potentiating effect | 166 fold | without showing any apparent potentiating effect | – | –
2 | 4.6 µM | O=C(Nc1cccc2c(=O)[nH][nH]c(=O)c12)c1ccc([N+](=O)[O-])cc1 [Cpd5] | – | – | – | – | – | –
3 | – | C[C@]1(c2nc3c(C(N)=O)cccc3[nH]2)CCCN1 [Veliparib, reference compound] | – | – | 466 fold | lack of synergistic effect | < 0.02 µM | selectively cytotoxic
